“And” between values parts separate entries of the source, which are not always exact repeats. Identical values can stand only once.
Key:
[1] = Plasma lipids, lipoproteins and liver weight in normal rats versus fibrates (Example 8); format: in vivo, rat; conditions: once daily p.o. 7 days, approximation
Excerpt: The study design was based on the protocols used in Examples 1-3. Male Sprague-Dawley rats were provided normal chow ad libitum, both before and during the study period. […] Six rats were assigned to each treatment group (8 to the vehicle control). The study terminated on the day following administration of the seventh dose (day 8), with terminal blood collected for plasma lipid and lipoprotein analyses including LC-MS-based determination of lipid profiles, total and free cholesterol analyses, and lipoprotein cholesterol determinations (VLDL, LDL and HDL).
In order to elucidate the impact of romazarit on plasma lipoproteins, an ultraviolet (UV) size exclusion chromatography (SEC) system was used to separate plasma into broad lipoprotein-containing fractions that were based on relative retention times of human VLDL (very low density lipoprotein), LDL (low density lipoprotein), and HDL (high density lipoprotein) standards. These fractions were collected for cholesterol assays and the UV chromatograms were integrated to provide relative quantitation of the three lipoprotein types. It is important to note that since the UV absorbance measurement is not specific for lipoproteins and may also derive from other plasma constituents that co-elute with a particular lipoprotein, the relative quantitation data reported here is an approximation. The HDL fraction in particular may have included such co-eluting species, as evidenced by the relatively high integrated area values for this fraction.

[2] = Terminal fasting serum glucose and lipids in rats with diet-induced obesity (Example 6); format: in vivo, rat; conditions: DIO rats, vs vehicle control
Experimental: As part of the study described in Example 4, a terminal blood sample (0.5 ml whole blood in EDTA) was collected on day 24, after a 12-18 hour fast. Whole blood was processed to serum, and analyzed for glucose, total cholesterol, HDL cholesterol, free fatty acids and total triglycerides.

[3] = Oral glucose tolerance test (OGTT) in rats with diet-induced obesity (Example 5); format: in vivo, rat; conditions: for Glucose concentration excursion (baseline to maximum) / Glucose concentration maximum: OGTT day 21, DIO rats; for Time to maximum (glucose concentration): OGTT day 21, dextrose 2 g/kg
Experimental: As part of the study described in Example 4, an oral glucose tolerance test (OGTT) was performed on day 21 of the dosing period, after a 2-4 hour fast. Dextrose (2 g/kg) was administered by oral gavage. Blood for glucose analysis was collected at 0, 15, 30, 60, 120 and 180 minutes after dextrose administration. At each time point, 0.25 ml whole blood was collected in EDTA, processed to plasma, and analyzed for blood glucose with a low-volume glucose kit.

[4] = Body weight, food consumption and liver weight in diet-induced obese (DIO) rat model (Example 4); format: in vivo
Experimental: Male Sprague-Dawley rats were acclimated for 7 weeks on a high-fat diet before commencement of dose administration, and maintained on the same diet throughout the subsequent dosing period of 23 days. The high-fat diet (D12492 commercially available from Research Diets, Inc., New Brunswick, N.J.) was one in which at least 60% of calories are derived from fat.
Dose levels of gemfibrozil (50 mg/kg) and sibutramine (10 mg/kg) were selected based on published reports. All treatments were administered once daily by oral gavage in 10 ml vehicle. A vehicle-only control was also administered. Each treatment group consisted of 10 animals.
Body weight of each animal was measured weekly during the 7-week acclimation period and five times weekly during the 23-day dosing period. Food consumption was recorded twice weekly during the 7-week acclimation period and five times weekly during the 23-day dosing period.
Animals were sacrificed and liver weights measured at conclusion of the study.

[5] = DIO rats, 10 mg/kg once daily p.o.

With `Cc1ccc(C)c(OCCCC(C)(C)C(=O)O)c1` [gemfibrozil] the “VLDL (UV size exclusion chromatography, relative quantitation)” value [1] was “similarly significant effect”, the “terminal (total) cholesterol levels” value ([2]; day 24, 50 mg/kg once daily) was “significantly increased” and the “terminal HDL levels” value ([2]; day 24, 50 mg/kg once daily) was “significantly increased”. For the same compound, the “terminal fasting levels of triglycerides” value ([2]; day 24, 50 mg/kg once daily) was “significant reduction”, the “terminal fasting serum glucose” value ([2]; day 24, 50 mg/kg once daily) was “did not result in a significant decrease” and the “terminal levels of free fatty acids” value ([2]; day 24, 50 mg/kg once daily) was “significant increase”. For the same compound, the “Glucose concentration excursion (baseline to maximum)” value ([3]; 50 mg/kg) was 110.0 mg/dL and 111.0 mg/dL, the Glucose concentration maximum ([3]; 50 mg/kg) was 264.9 mg/dL and the “Time to maximum (glucose concentration)” value ([3]; DIO rats, 50 mg/kg) was 30 min. The food consumption ([4]; DIO rats, 50 mg/kg once daily p.o., dosing period) was “No significant effect”, the body weight ([4]; DIO rats, 50 mg/kg once daily p.o., throughout the dosing period) was “no significant effect” and the liver weight ([4]; rat, in vivo, po, 50 mg/kg) was “Increased liver weight”.

With `CC(C)CC(N(C)C)C1(c2ccc(Cl)cc2)CCC1` (stereo not shown) [sibutramine] the “terminal (total) cholesterol levels” value ([2]; day 24, 10 mg/kg once daily) was “no effect”, the “terminal HDL levels” value ([2]; day 24, 10 mg/kg once daily) was “no significant effect” and the “terminal fasting levels of triglycerides” value ([2]; day 24, 10 mg/kg once daily) was “significant reduction”. For the same compound, the “terminal fasting serum glucose” value ([2]; day 24, 10 mg/kg once daily) was “significant decrease”, the “terminal levels of free fatty acids” value ([2]; day 24, 10 mg/kg once daily) was “no effect” and the Glucose concentration baseline ([3]; OGTT day 21, 0 minutes, DIO rats, 10 mg/kg) was 126.9 mg/dL. For the same compound, the “Glucose concentration excursion (baseline to maximum)” value ([3]; 10 mg/kg) was 74.4 mg/dL, the Glucose concentration maximum ([3]; 10 mg/kg) was 201.3 mg/dL and the “Time to maximum (glucose concentration)” value ([3]; DIO rats, 10 mg/kg) was 30 min. The “day by which food consumption returned to levels comparable to the vehicle control” value [4, 5] was at most 8 days, the “time of minimum food consumption” value [4, 5] was at most 2 days and the body weight ([4]; DIO rats, 10 mg/kg once daily p.o., 23 days) was “significant weight loss”. The liver weight ([4]; DIO rats, 10 mg/kg once daily p.o., conclusion of the study) was “No increase in liver weight”.

From patent publication US20100105746A1, “METHOD FOR TREATING METABOLIC DISEASES” (priority 2008, published 2010)
